In patent US7169778B2, “Pteridinones as kinase inhibitors” (Warner-Lambert Company, priority 1999, dated 2007):

Tests used:
[1] = target: T1, mouse PDGF-β receptor tyrosine kinase (Mus musculus, UniProt P05622); assay: PDGF receptor tyrosine kinase assay; format: biochemical
T1 construct: amplify a fragment of DNA that codes for the intracellular tyrosine kinase domain; made in house; host or cells: SF9 insect cells (baculovirus)
Excerpt: (§1) Full-length cDNAs for the mouse PDGF-β and human FGF-1 (flg) receptor tyrosine kinases were obtained from J. Escobedo and prepared as described in J. Biol. Chem., 1991;262:1482–1487. PCR primers were designed to amplify a fragment of DNA that codes for the intracellular tyrosine kinase domain. The fragment was inserted into a baculovirus vector, cotransfected with AcMNPV DNA, and the recombinant virus isolated. SF9 insect cells were infected with the virus to overexpress the protein, and the cell lysate was used for the assay. Assays were performed in 96-well plates (100 μL/incubation/well), and conditions were optimized to measure the incorporation of ^32P from γ^32P-ATP into a glutamate-tyrosine co-polymer substrate. Briefly, to each well was added 82.5 μL of incubation buffer containing 25 mM Hepes (pH 7.0), 150 mM NaCl, 0.1% Triton X-100, 0.2 mM PMSF, 0.2 mM Na3VO4, 10 mM MnCl2, and 750 μg/mL of Poly (4:1) glutamate-tyrosine followed by 2.5 μL of inhibitor and 5 μL of enzyme lysate (7.5 μg/μL FGF-TK or 6.0 μg/μL PDGF-TK) to initiate the reaction. Following a 10 minute incubation at 25° C., […] of γ^32P-ATP (0.4 μCi plus 50 μM ATP) was added to each well, and samples were incubated for an additional 10 minutes at 25° C. The reaction was terminated by the addition of 100 μL of 30% TCA containing 20 mM sodium pyrophosphate and precipitation of material onto glass fiber mats (Wallac). Filters were washed three times with 15% TCA containing 100 mM sodium pyrophosphate, and the radioactivity retained on the filters counted in a Wallac 1250 Betaplate reader. Nonspecific activity was defined as radioactivity retained on the filters following incubation of samples with buffer alone (no enzyme). Specific enzymatic activity (enzyme plus buffer) was defined as total activity minus nonspecific activity. The concentration of a compound that inhibited specific activity by 50% (IC50) was determined based on the inhibition curve.

[2] = target: cdk2/cyclinA (Homo sapiens, UniProt P24941); assay: Cyclin-dependent kinase assay cdk2/cyclinA; format: biochemical; conditions: cyclin dependent kinase 2/cyclin A complex; read-out: CDK2A IC50
Experimental: (§2) All components except the ATP were added to the wells, and the plate was placed on a plate mixer for 2 minutes. The reaction was begun by addition of [^32P]ATP, and the plate was incubated at 25° C. for 15 minutes. The reaction was terminated by addition of 0.1 mL of 20% TCA. The plate was kept at 4° C. for at least 1 hour to allow the substrate to precipitate. The wells were then washed five times with 0.2 mL of 10% TCA and ^32P incorporation determined using a beta plate counter (Wallac Inc., Gaithersburg, Md.).

[3] = target: cdc2/cyclinB (Homo sapiens, UniProt P06493); assay: Cyclin-dependent kinase assay cdc2/cyclinB; format: biochemical; conditions: cyclin dependent kinase 1/cyclin B complex; read-out: CDK1B IC50
Experimental: as §2

[4] = target: cdk2/cyclinE (Homo sapiens, UniProt P24941); assay: Cyclin-dependent kinase assay cdk2/cyclinE; format: biochemical; conditions: cyclin dependent kinase 2/cyclin E complex; read-out: CDK2E IC50
Experimental: as §2

[5] = target: cdk4/cyclin D1 complex (Homo sapiens, UniProt P11802); assay: Cyclin-dependent kinase 4 (CDK4) assay; format: biochemical; conditions: cyclin dependent kinase 4/cyclin D1 complex; read-out: CDK4D IC50
Experimental: Enzyme assays for IC50 determinations (Table 1) and kinetic evaluation were performed in 96-well filter plates (Millipore MADVN6550) The total volume was 0.1 mL containing a final concentration of 20 mM TRIS (tris[hydroxmethyl]aminomethane), at pH 7.4, 50 mM NaCl, 1 mM dithiothreitol, 10 mM mgCl2, 25 μM ATP containing 0.25 μCi of [^32P]ATP, 20 ng of cdk4/cyclin D1 complex, 1 μg of retinoblastoma and appropriate dilutions of a compound of the present invention. All components except the ATP were added to the wells, and the plate was placed on a plate mixer for 2 minutes. The reaction was started by adding [^32P]ATP and the plate incubated at 25° C. for 15 minutes. The reaction was terminated by addition of 0.1 mL of 20% TCA. The plate was kept at 4° C. for at least 1 hour to allow the substrate to precipitate. The wells were then washed five times with 0.2 mL of 10% TCA and ^32p incorporation determined with a beta plate counter (Wallac Inc., Gaithersburg, Md.).

[6] = target: N-terminal truncated Wee 1 (Homo sapiens, UniProt P30291); assay: Wee 1 OY kinase assay; format: biochemical; conditions: read-out: WEE1OY IC50
Experimental: These kinase assays are carried out on 96-well filter plates (Millpore, Cat. MADPN0B50) in 50 μL kinase assay buffer (50 mM Tris, pH 8.0, 10 mM NaCl, 10 mM MgCl2, 10 μM ATP with 0.25 μCi [r-32P]ATP, 1 mM DTT) with 0.1 μg purified N-terminal truncated Wee 1 and 6 μg poly(Orn, Tyr)4:1 (Sigma, P4534). The assay is started by adding ATP and incubating at room temperature for 20 minutes with shaking. The reactions are terminated by adding 50 μL ice-cold 20% TCA (trichloracetic acid) with 0.1 M sodium pyrophosphate and shaking the resultant mixture for 1 minute. The plate is then incubated at 4° C. for 1 hour to allow protein to precipitate. These plates are then washed 5 times with 200 μL ice-cold 10% TCA and with 0.1 M sodium pyrophosphate per wash. Twenty-five microliters scintillation liquid is then added to each well, and the plate is counted in Wallac's MicroBeta counter 1450.

[7] = target: C-src kinase (Homo sapiens, UniProt P12931); assay: C-src kinase assay; format: biochemical
Experimental: C-src kinase was purified from baculovirus infected insect cell lysates using an antipeptide monoclonal antibody directed against the N-terminal amino acids (amino acids 2–17) of c-src. The antibody, covalently linked to 0.65 μm latex beads, was added to a suspension of insect cell lysis buffer comprised of 150 mM NaCl, 50 mM Tris pH 7.5, 1 mM DTT, 1% NP-40, 2 mM EGTA, 1 mM sodium vanadate, 1 mM PMSF, 1 μg/mL each of leupeptin, pepstatin, and aprotinin. Insect cell lysate containing c-src protein was incubated with these beads for 3 to 4 hours at 4° C. with rotation. At the end of the lysate incubation, the beads were rinsed three times in lysis buffer, resuspended in lysis buffer containing 10% glycerol, and frozen. These latex beads were thawed, rinsed three times in assay buffer (40 mM Tris, pH 7.5, 5 mM mgCl2) and suspended in the same buffer. In a Millipore 96-well plate with a 0.65 μm polyvinylidine membrane bottom were added the reaction components: 10 μL C-src beads, 10 μL of 2.5 mg/mL poly GluTyr substrate, 5 μM ATP containing 0.2 μCi labeled ^32P-ATP, 5 μL DMSO containing inhibitors or as a solvent control, and buffer to make the final volume 125 μL. The reaction was started at room temperature by addition of the ATP and quenched 10 minutes later by the addition of 125 μL of 30% TCA, 0.1 M sodium pyrophosphate for 5 minutes on ice. The plate was then filtered and the wells washed with two […] aliquots of 15% TCA, 0.1 M pyrophosphate. The filters were then punched, counted in a liquid scintillation counter, and the data examined for inhibitory activity in comparison to a known inhibitor such as erbstatin. The method is also described in J. Med. Chem., 1994;37:598–609.

[8] = target: T2, human FGF-1 (flg) receptor tyrosine kinase (Homo sapiens, UniProt P11362); assay: FGF receptor tyrosine kinase assay; format: biochemical; conditions: read-out: FGF % @ concentration; for inhibition at 0.5 µM: @ 0.5 (unit μm); for inhibition at 5 µM: @ 5 (unit μm)
T2 construct: amplify a fragment of DNA that codes for the intracellular tyrosine kinase domain; made in house; host or cells: SF9 insect cells (baculovirus)
Excerpt: as §1

T2 sequence (P11362 478-767 limits assumed): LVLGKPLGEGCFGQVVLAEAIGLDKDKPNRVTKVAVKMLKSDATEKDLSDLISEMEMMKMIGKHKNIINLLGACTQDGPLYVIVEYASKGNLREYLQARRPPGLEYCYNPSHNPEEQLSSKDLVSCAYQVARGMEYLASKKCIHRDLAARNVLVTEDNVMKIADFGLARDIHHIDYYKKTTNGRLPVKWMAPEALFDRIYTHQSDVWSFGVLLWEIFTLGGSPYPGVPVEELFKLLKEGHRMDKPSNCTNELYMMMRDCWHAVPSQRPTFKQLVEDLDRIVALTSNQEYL
Chain of C-src kinase (P12931 whole entry, the tested form may be a part): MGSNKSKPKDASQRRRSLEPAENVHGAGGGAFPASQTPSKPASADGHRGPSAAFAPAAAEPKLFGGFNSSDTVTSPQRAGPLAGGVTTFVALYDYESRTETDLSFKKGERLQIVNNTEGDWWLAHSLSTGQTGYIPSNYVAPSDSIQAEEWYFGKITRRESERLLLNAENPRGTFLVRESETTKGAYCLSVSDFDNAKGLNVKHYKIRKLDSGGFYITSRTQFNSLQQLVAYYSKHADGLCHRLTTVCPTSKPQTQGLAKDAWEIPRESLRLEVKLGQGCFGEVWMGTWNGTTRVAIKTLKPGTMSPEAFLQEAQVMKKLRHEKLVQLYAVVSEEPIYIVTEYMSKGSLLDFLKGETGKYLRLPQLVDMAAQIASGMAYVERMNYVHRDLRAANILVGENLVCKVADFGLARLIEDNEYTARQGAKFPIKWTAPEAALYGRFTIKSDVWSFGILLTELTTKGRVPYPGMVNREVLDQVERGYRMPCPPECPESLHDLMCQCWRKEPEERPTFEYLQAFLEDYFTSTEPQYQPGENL
Chain of N-terminal truncated Wee 1 (P30291 299-569 limits assumed): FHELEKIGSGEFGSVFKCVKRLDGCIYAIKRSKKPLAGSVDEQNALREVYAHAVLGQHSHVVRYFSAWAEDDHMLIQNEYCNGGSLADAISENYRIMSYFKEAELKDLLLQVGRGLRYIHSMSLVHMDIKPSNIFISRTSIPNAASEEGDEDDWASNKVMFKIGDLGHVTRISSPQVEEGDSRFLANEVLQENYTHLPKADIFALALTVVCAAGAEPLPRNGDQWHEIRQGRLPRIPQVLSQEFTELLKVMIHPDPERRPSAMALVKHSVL
T1 sequence (P05622 599-961 limits assumed): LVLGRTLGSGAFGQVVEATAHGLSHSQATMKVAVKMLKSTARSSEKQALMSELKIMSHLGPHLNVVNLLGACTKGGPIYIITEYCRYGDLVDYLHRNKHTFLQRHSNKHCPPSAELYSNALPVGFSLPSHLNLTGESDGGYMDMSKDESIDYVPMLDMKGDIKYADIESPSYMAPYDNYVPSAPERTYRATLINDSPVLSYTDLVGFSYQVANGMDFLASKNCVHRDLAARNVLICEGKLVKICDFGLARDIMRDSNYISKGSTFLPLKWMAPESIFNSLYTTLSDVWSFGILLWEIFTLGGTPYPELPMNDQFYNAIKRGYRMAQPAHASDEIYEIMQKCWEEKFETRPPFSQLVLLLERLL
Chain of cdc2/cyclinB (P06493 whole entry, species assumed): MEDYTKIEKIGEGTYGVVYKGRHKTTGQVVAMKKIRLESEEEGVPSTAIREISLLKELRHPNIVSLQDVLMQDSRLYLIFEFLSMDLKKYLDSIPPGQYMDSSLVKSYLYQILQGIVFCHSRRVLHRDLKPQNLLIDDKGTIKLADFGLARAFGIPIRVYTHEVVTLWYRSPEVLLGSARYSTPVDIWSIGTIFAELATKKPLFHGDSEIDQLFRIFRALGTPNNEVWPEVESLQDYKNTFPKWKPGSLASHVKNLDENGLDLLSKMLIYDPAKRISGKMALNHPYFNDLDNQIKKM
Chain of cdc2/cyclinB (P14635 whole entry partner, species assumed): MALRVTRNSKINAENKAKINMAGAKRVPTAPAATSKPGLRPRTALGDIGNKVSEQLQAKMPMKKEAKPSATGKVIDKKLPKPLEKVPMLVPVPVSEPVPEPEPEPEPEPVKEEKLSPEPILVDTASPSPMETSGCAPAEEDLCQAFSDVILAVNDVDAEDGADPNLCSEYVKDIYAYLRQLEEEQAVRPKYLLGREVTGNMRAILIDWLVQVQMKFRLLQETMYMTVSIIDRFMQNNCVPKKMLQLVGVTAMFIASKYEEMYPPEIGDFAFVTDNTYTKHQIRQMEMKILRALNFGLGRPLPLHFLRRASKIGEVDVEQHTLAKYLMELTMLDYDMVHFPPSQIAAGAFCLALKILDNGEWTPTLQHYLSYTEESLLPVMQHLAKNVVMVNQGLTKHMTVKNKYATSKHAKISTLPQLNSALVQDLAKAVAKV
Chain of cdk4/cyclin D1 complex (P11802 whole entry, species assumed): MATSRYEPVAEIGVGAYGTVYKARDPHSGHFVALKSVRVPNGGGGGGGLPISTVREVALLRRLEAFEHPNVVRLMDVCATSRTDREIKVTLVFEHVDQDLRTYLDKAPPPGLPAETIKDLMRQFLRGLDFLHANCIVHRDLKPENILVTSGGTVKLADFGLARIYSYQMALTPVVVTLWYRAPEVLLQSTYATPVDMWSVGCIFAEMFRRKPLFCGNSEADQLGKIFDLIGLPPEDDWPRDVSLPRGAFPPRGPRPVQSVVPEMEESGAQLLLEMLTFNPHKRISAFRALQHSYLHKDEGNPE
Chain of cdk4/cyclin D1 complex (P24385 whole entry partner, species assumed): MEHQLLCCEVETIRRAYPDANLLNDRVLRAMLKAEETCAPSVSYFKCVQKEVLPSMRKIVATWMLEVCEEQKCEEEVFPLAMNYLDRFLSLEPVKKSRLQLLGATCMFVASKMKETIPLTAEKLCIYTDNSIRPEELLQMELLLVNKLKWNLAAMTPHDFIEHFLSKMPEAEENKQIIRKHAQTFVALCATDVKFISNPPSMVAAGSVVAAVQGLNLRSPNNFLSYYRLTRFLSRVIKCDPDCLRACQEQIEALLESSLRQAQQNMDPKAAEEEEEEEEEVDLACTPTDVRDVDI

| SMILES | IC50 [1] [nM] | IC50 [2] [nM] | IC50 [3] [nM] | IC50 [4] [nM] | IC50 [5] [nM] | IC50 [6] [nM] | IC50 [7] [nM] | inhibition at 0.5 µM [8] [%] | melting point [°C] | PDGF % @ concentration ([1]; @ 5 (unit μm)) [% @ 5] | inhibition at 50 µM ([8]; @ 50 (unit μm)) [%] | inhibition at 5 µM [8] [%] |
| --- | --- | --- | --- | --- | --- | --- | --- | --- | --- | --- | --- | --- |
| NC1CCN(c2ccc(Nc3ncc4ncc(=O)n(C5CCCC5)c4n3)cc2)C1 (centres unmarked) [Compound 17, 2-[[4-(3-Aminopyrrolidin-1-yl)phenyl]amino]-8-cyclopentyl-8H-pteridin-7-one] | 2190 | 94 | 400 | 1900 | 43.5 |  |  |  |  |  |  |  |
| CN1CCN(c2ccc(Nc3ncc4ncc(=O)n(C5CCCC5)c4n3)cc2)CC1 [Compound 8, 8-Cyclopentyl-2-[[4-(4methylpiperazin-1-yl)phenyl]amino]-8H-pteridin-7-one] | 6000 | 260 |  | 950 | 41 | > 50000 | 3350 | 41 | 208 to 211 |  |  |  |
| O=c1cnc2cnc(Nc3ccc(N4CCNCC4)cc3)nc2n1C1CCCC1 [Compound 16, 8-Cyclopentyl-2-[[4-(piperazin-1-yl)phenyl]amino]-8H-pteridin-7-one] |  | 180 | 750 | 610 | 7 |  | 3300 |  |  |  |  |  |
| Cc1nc2cnc(Nc3ccc(N4CCN(C)CC4)cc3)nc2n(C2CCCC2)c1=O [Compound 9, 8-Cyclopentyl-6methyl-2-[[4-(4-methylpiperazin-1-yl)phenyl]amino]-8H-pteridin-7-one] |  | 2780 |  | 41000 | 47 | > 50000 | 3000 | 41 | 210 to 211 | 59 |  |  |
| Cc1nc2cnc(Nc3ccc(N4CCOCC4)cc3)nc2n(C2CCCC2)c1=O [Compound 10, 8-Cyclopentyl-6-methyl-2-[[4-(morpholin-4-yl)phenyl]amino]-8H-pteridin-7-one] | > 50000 | 1840 |  | 8000 | 440 | > 50000 | 34000 |  | 230 to 234 |  | 57 |  |
| O=c1cnc2cnc(Nc3ccc(N4CCOCC4)cc3)nc2n1C1CCCC1 [Compound 7, 8-Cyclopentyl-2-[[4-(morpholin-4-yl)phenyl]amino]-8H-pteridin-7-one] | 12000 | 64 |  | 650 | 60 | > 50000 | 8470 |  | 182 to 184 |  |  | 33 |
| CC(C)(C)OC(=O)N1CCN(c2ccc(Nc3ncc4ncc(=O)n(C5CCCC5)c4n3)cc2)CC1 [Compound 52, 2-[[4-[4(tert-Butoxycarbonyl)piperazin-1-yl]phenyl]amino]-8-cyclopentyl-8H-pteridin-7-one] |  | 530 |  | 4500 | 1800 |  | > 50000 |  | 215 to 217 |  |  |  |
| O=c1cnc2cnc(Nc3ccncc3)nc2n1C1CCCC1 [Compound 11, 8-Cyclopentyl-2-[(pyridin-4-yl)amino]-8H-pteridin-7-one] | > 50000 | 36 | 354 | 50 | 1250 | > 50000 | 11000 |  | 236 to 238 |  |  | 31 |
